# Where two headings read alike, the source gives them in different places.
# Columns and labels:
# [1] = system: human prostate cancer cell line PC-3; assay: cells; type: cell-based
# Protocol: Aziridinyl putrescine 1-(4-aminobutyl) aziridine was synthesized using the method as described by Piper, et al., J. Med. Chem. 12: 236-243 (1968). Cells of the human prostate cancer cell line PC-3 were used.
# 10^3 PC-3 human cells were plated in RPMI 1640 with 10% FCS/3 ml in 60 mm^2 petri dishes. The cell plates were incubated either with, or without difluoromethylornithine for 48 hours. This was followed by aspiration, and replacement with a medium containing either no additives, 50 uM 1-(4-aminobutyl) aziridine, 1 mM putrescine, or both 50 uM 1-(4-aminobutyl) aziridine and 1 mM putrescine. The media were aspirated after 1 hour, and replaced with a drug free medium. Incubation continued for 5 days.
# *Represents mean number of colonies ± one standard deviation of
# triplicate assay. Number in parenthesis is percent of control.
# [2] = system: PC-3 human prostatic carcinoma cell line; assay: cells; type: cell-based
# Protocol: FIG. 3. Effect of AZP on the growth of PC-3 cells with or without DFMO pretreatment. PC-3 cells (3×10^4) were plated in 60-mm^2 Petri dish in RPMI 1640-10% FCS and allowed to attach overnight. The following day the medium was aspirated and replaced with RPMI 1640, 10% FCS, 100 μM aminoguanidine with or without 1 mm DFMO. Forty-eight h later the medium was aspirated, the dishes were rinsed once with HBSS, and the cells were incubated with RPMI 1640-10% FCS-100 μM aminoguanidine with or without 25 μM AZP for 1 h. Following the 1-h incubation the medium was aspirated, the plates were rinsed twice with HBSS, and the incubation was continued with fresh RPMI 1640-10% FCS-100 μM aminoguanidine. At the indicated times following initial plating the cells were lifted from the plate by trypsinization and were examined for their ability to exclude trypan blue. Total cell counts were obtained with the aid of a hemocytometer, and the completeness of the removal of the cells from the dish was verified by the examination of each dish with the inverted microscope. , control; Δ, DFMO; .circle., AZP; .quadrature., DFMO+AZP. Points, means; bars, SE.
# FIG. 4. Dose-effect relationship of AZP on the growth on PC-3 prostatic cancer cells. PC-3 cells (3×10^4) were plated in RPMI 1640-10% FCS in 60-mm^2 Petri dishes and allowed to attach overnight. The following day the medium was aspirated and replaced with RPMI 1640-10% FCS-100 μM aminoguanidine with or without 1 mm DFMO. Forty-eight h later the medium was aspirated, and the cells were rinsed once with HBSS and replaced with RPMI 1640-10% FCS-100 μM aminoguanidine with or without the indicated μM concentrations of AZP. After a 1-h incubation the medium was aspirated, the cells were rinsed twice with HBSS, and the incubation was continued with fresh RPMI 1640-10% FCS-100 μM aminoguanidine. Eight days following plating the cells were lifted from the plates by trypsinization and were counted with the aid of a hemocytometer and expressed as a percentage of control (100% without DFMO, 212±31×10^4; 100% with DFMO pretreatment, 219±25× 10^4 cells, respectively). , DFMO pretreated; .circle., without DFMO.
# Assays of cell growth were performed by plating 3×10^4 PC-3 cells in RPMI 1640 medium with 10% FCS and allowing them to attach overnight. The following morning the medium was replaced with incubation medium consisting of RPMI 1640, 10% FCS, 100 μM aminoguanidine, 100 units/ml of penicillin, 100 μg/ml of streptomycin, and 2 mM glutamine, with or without 1 mM difluoromethylornithine. Two days later the medium was aspirated and replaced with or without 1-(4-aminobutyl) aziridine at the designated concentration usually for 1 h or for the designated length of time. Following the 1-h incubation, the medium of all groups was aspirated and the dishes were rinsed with HBSS and replaced with fresh incubation medium. Either daily or 8 days following plating, the Petri dishes were rinsed with HBSS and the cells were lifted from the plate by trypsinization. The dishes were examined for completeness of cell removal by examination with an inverted microscope. The cells were counted with a Zeiss microscope using a hemocytometer. Tumor cell population doubling time was determined by ploting the natural logarithm (ln) of the number of cells versus the days following plating. The slope of this line was determined using the Memorial Sloan-Kettering Cancer Center Clin computer system statistical analysis package. Doubling time (DT) was determined as ln 2/slope=DT. Statistical differences in cell number between groups were determined by Student's t statistic with the aid of the Memorial Sloan-Kettering Cancer Center Clin computer using the statistics program.
# ^a Thirty thousand PC3 cells were plated in 60mm^2 Petri dishes i
# RPMI 164010% FCS. The next day the medium was aspirated and replaced with
# RPMI 164010% FCS medium with 100 μM aminoguanidine with or without 1 m
# DFMO. Fortyeight h later the medium was aspirated. […]
# normal rat prostate = assay: In vivo antiprostatic activity, prostate wet weight; conditions: Copenhagen rats, 14 days; AZP 2 mg/kg/day by intraperitoneal infusion mini-pump, DFMO similar amount orally
# Protocol: 1-(4-aminobutyl) aziridine, difluoromethylornithine, and a combination of 1-(4-aminobutyl) aziridine and difluoromethylornithine were tested in vivo for antiprostatic activity using Copenhagen rats. The normal rat prostate is often used as a model or control for drugs which are suspected of having antiprostatic cancer activity. Sloan, et al., Cancer Chemother. Rep. 59: 185-194 (1975). 1-(4-aminobutyl) aziridine, difluoromethylornithine, and a combination of 1-(4-aminobutyl) aziridine and difluoromethylornithine were administered to twenty-eight (28) Copenhagen rats for 14 days. 1-(4-aminobutyl) aziridine was administered by an infusion mini-pump implanted intraperitoneally.
# Difluoromethylornithine was administered orally. The 1-(4-aminobutyl) aziridine was delivered at a rate of 2 mg/kg/day. A similar amount of difluoromethylornithine was administered orally on a daily basis. Before loading the infusion pump, the pH of 1-(4-aminobutyl) aziridine was adjusted to 7.5 with hydrochloric acid. The pump rate was 0.5 u./hr.
# The prostates of the twenty-eight (28) subjects were removed, freed of fat and weighed to the nearest milligram.
# PC-3 cells = assay: Polyamine assays: intracellular polyamine levels by HPLC; type: cell-based, human; conditions: PC-3, ±1 mM DFMO 48 h, then ±25 μM AZP 1 h
# Protocol: One h later the medium was aspirated and the cells were rinsed with cold HBSS. Three plates were treated with dilute trypsin to release the cells from the plate and provide a single cell suspension. The viability of the cells and the number of cells per plate were determined by trypan blue exclusion and counting with the aid of a hemocytometer. […] The other three plates were extracted with 0.4N perchloric acid and the polyamines were measured by fluorescence following postcolumn derivatization with o-phthalaldehyde following separation by the reverse phase ion-pair high performance liquid chromatography procedure of Wagner et al., J. Chomatogr., 227: 349-368, 1982.
# In Table 2 are listed the values for the triplicate assays of the concentrations of polyamine observed in nontreated cells, cells treated with 1-(4-aminobutyl) aziridine for 1 h, cells pretreated for 48 h with 1 mM difluoromethylornithine and then incubated in drug free medium for 1 h, or cells pretreated for 48 h with difluoromethylornithine, rinsed free of difluoromethylornithine, and then incubated with 25 μM 1-(4-aminobutyl)aziridine for 1 h. All groups had cell viabilities greater than 95% and cell numbers were 4.9±0.6 (SE), 4.9±0.7, 4.8±0.4, and 4.6±0.4×10^6 cells for the control, 1-(4-aminobutyl) aziridine, difluoromethylornithine, and difluoromethylornithine+1-(4-aminobutyl) aziridine groups, respectively. The apparent amount of 1-(4-aminobutyl) aziridine in the difluoromethylornithine-treated cells was 3.7 times that of the 1-(4-aminobutyl) aziridine-only-treated cells. No N^8 -acetylspermidine, acetylputrescine, or cadaverine was detected in any group. A peak was detected at a wavelength of 254 nm in the difluoromethylornithine treatment groups that corresponds to the retention time of decarboxylated S-adenosylmethionine.
# ^a PC-3 cells were incubated with or without 1 mM DFMO for 48 h. Cell
# were then rinsed free of DFMO and incubated for 1 h with 25 μM AZP. Th
# cells were washed free of AZP by three rinses of HBSS. With one set of
# triplicate plates, the cells were resuspended and counted by hemocytomete
# and viability was determined by trypan dye exclusion (viability > 95%).
# Another set triplicate plates was extracted with icecold perchloric acid
# and filtered and the polyamine concentrations were determined by HPLC.
# ^b Mean ± SE for a triplicate assay. Histamine is included as a […]
# [3] = system: uptake of [14C]putrescine into PC-3 cells; type: cell-based, human
# Protocol: FIG. 1. Lineweaver-Burk plot of the uptake of [^14 C]putrescine by DFMO-pretreated cells. The ordinate is expressed as 1/pmol/15 min. The abscissa is expressed as 1 μM concentrations containing from 16 to 1.0 μM [^14 C]putrescine.
# Fifty thousand PC-3 cells were plated in 12-well plates and 18 h later the incubation medium was removed and replaced with 1 ml or RPMI 1640 medium containing 25 mM 4-(2-hydroxyethyl)-1-piperazineethansulfonic acid buffer, 100 μM aminoguanidine, and 10% FCS. Forty-eight h later the medium was replaced with medium which contained [^14 C]putrescine in concentrations ranging from 16 to 1.0 μM with or without 5 1M 1-(4-aminobutyl) aziridine. Following incubation at 37° C. for 15 min the [^14 C]putrescine-containing medium was aspirated, and the cells were rinsed rapidly 4 times with HBSS. Following the last rinse, 1.0 ml of a solution of 0.1N NaOH was added and after a 2-h incubation at room temperature a 0.2-ml aliquot was added to 1 ml of 2% glacial acidic acid and 10 ml of Scintiverse 1 scintillation cocktail and the radioactive disintegrations were determined with a Packard Tri-Carb 300 scintillation spectrophotometer. Counting efficiency for ^14 C was 80%. Kinetic analysis of uptake was performed by graphic methods as described by Dixon and Webb, Enzymes, p. 322, New York Academic Press (1959).
# In FIG. 1 a Lineweaver-Burk plot of the uptake of [^14 C]-putrescine into the PC-3 cells is presented and was used to determine the Km (intercept x axis) and Vmax (intercept y axis) for putrescine.
# [4] = PC-3, 48 h with or without DFMO, then 1 h with 50 uM AZP and/or 1 mM putrescine, 5 days drug free
smiles,measurement,setting,value
"NCCCC(N)(C(=O)O)C(F)F (stereo not shown) [DFMO, difluoromethylornithine, reference compound]",Inhibition of proliferation of human prostate cancer cells in culture,"[1]; AZP at 50 uM, from Table 1",little effect
same,Clonogenic survivors (mean number of colonies ± one standard deviation),[1]; [4],549 ± 57 colonies
same,"Clonogenic survivors, percent of control",[1]; [4],94%
same,Cells per dish on day 8 following plating,"[2]; PC-3, 3×10^4 plated, ±1 mM DFMO 48 h, ±25 μM AZP 1 h, mean±SD of triplicates",340±54 ×10^4 cells per dish
same,Doubling time,"[2]; PC-3, 25 μM AZP 1 h or 1 mM DFMO 48 h, mean±SE",1.14 ± 0.05 days
same,"Dorsal Lateral Prostate, milligram wet weight (SEM)",normal rat prostate,445 ± 32 milligram
same,"Ventral Prostate, milligram wet weight (SEM)",normal rat prostate,377 ± 16 milligram
same,Cell numbers at end of treatment,PC-3 cells; SE,4.8±0.4 ×10^6 cells
same,"Polyamine levels: Hist (histamine, nonpolyamine control)",PC-3 cells; mean ± SE,98 ± 26 pmol/10^6
same,Polyamine levels: NaSpm (N-acetylspermine),PC-3 cells; mean ± SE,130 ± 10 pmol/10^6
same,Polyamine levels: PUT (putrescine),PC-3 cells; mean ± SE,192 ± 34 pmol/10^6
same,Polyamine levels: Spd (spermidine),PC-3 cells; mean ± SE,171 ± 66 pmol/10^6
same,Polyamine levels: Spm (spermine),PC-3 cells; mean ± SE,3046 ± 554 pmol/10^6
"NCCCCN [PUT, 1,4-butanediamine, reference compound]",Km,[3],2500 nM
same,Vmax of putrescine uptake,[3],190 pmol/15 min/10^5 cells
same,Vmax of putrescine uptake,"[3]; PC-3 cells, without difluoromethylornithine pretreatment",40 pmol/15 min/10^5 cells
same,Cell no.,[2],438 ± 16 × 10^-4
same,Growth-inhibitory activity toward PC-3 cells (in words),[2],no growth-inhibitory activity
same,Cell no. as a percentage of control,"[2]; pc-3 cells, 11520 min",106%

# — patent publication US4925835A, “Aziridinyl putrescine containing compositions and their uses in treating prostate cancer” (priority 1987, dated 1990)
